Where a name gives a salt, the structure may show the parent alone.
Molecular target: human recombinant DGK ξ (Homo sapiens (Human), UniProt Q13574)
Assay: Evaluation of DGK ξ inhibitory effect (ADP-Glo Kinase Assay)
Format: biochemical
Description: Test Example 1: Evaluation of DGK ξ Inhibitory Effect
The inhibitory effect of a test compound on human recombinant DGK ξ (Carna Biosciences, Inc., 12-410-20N) was examined by the following method in which detection is performed with ADP-Glo™ Kinase Assay (Promega Corporation).
To a 384-well plate (Greiner Bio-One Co., Ltd.), 3 μL of a […] dissolved in an assay buffer (40 mM Tris-HCl pH 7.5, 10 mM MgCl2, 1 mM dithiothreitol (DTT) and 0.1 mg/mL bovine serum albumin (BSA)) (90 ng/mL) was added, and 3 μL of the test compound diluted with the same assay buffer was added so that an intended final concentration was obtained. The mixture was left standing at room temperature for 15 minutes, 3 μL of a substrate (150 μM 1-oleoyl-2-acetyl-sn-glycerol (Sigma-Aldrich Co. LLC.), 480 μM phosphatidylserine (Avanti Polar Lipids, Inc.) and 150 μM UltraPure-ATP (attached to ADP-Glo)) was then added, and the mixture was left standing at room temperature for 30 minutes to react. Thereafter, 3 μL of an ADP-Glo Reagent was added, and the mixture was left standing at room temperature for 40 minutes to stop the enzyme reaction. Further, 6 μL of a Kinase-Detection Reagent was added, the mixture was left standing at room temperature for 30 minutes, and the luminescence was then measured using ARVO X3 (PerkinElmer, Inc.). The half maximal inhibitory concentration (IC50) was calculated by Sigmoid-Emax model non-linear regression analysis, where the signal value in solvent treatment was set to 0% inhibition and the signal value without addition of the DGK ξ enzyme was set to 100% inhibition. […] In the table, Ex represents the number of each Example described below. Also, in the table, compound C (cpd. C) represents the test compound of the Example 199 described in the international publication WO 2008/054702.

human recombinant DGK ξ, sequence (Q13574 whole entry): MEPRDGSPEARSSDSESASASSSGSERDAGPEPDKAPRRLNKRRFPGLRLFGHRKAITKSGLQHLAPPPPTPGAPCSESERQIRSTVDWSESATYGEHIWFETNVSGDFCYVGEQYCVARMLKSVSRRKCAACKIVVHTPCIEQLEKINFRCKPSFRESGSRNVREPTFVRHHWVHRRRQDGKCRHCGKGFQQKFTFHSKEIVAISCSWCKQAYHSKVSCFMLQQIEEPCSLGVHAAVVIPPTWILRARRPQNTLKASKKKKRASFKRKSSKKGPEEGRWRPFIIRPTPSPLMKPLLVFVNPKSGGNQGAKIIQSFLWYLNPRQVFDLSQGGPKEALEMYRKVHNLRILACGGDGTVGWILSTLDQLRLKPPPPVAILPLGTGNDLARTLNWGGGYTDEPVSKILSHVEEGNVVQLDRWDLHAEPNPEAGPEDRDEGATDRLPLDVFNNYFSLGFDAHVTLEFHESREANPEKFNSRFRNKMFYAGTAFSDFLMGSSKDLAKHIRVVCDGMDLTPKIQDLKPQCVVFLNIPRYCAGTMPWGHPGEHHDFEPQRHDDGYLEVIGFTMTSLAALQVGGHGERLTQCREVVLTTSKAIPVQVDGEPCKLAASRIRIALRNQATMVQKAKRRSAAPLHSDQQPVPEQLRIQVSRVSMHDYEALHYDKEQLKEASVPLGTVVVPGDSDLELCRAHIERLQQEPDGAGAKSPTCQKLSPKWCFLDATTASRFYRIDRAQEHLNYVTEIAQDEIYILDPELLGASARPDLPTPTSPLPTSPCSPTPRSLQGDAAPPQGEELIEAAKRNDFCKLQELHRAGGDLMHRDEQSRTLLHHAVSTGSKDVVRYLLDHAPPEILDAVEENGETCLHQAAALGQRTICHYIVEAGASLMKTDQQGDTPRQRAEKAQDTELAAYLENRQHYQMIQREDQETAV

IC50	SMILES
6 nM	Cc1ccccc1Oc1ccc(NC(=O)c2csc(-c3ccnnc3)n2)c(N2CCC[C@@H](CN)C2)c1C(F)(F)F [Example 21]
147 nM	NC[C@@H]1CCCN(c2c(NC(=O)c3csc(-c4ccnnc4)n3)ccc(N3CCCC3)c2C(F)(F)F)C1 [Example 47]
23 nM	CNC[C@H]1CCCN(c2c(NC(=O)c3csc(-c4ccnnc4)n3)ccc(Oc3ccccc3)c2C(F)(F)F)C1 [Example 50]
7 nM	NC[C@@H]1CCCN(c2c(NC(=O)c3csc(-c4ccnnc4)n3)ccc(C(=O)c3ccccc3)c2C(F)(F)F)C1 [Example 70]
13 nM	NC[C@@H]1CCCN(c2c(NC(=O)c3csc(-c4ccnnc4)n3)ccc(OC3CC3)c2C(F)(F)F)C1 [Example 13]
7 nM	NC[C@@H]1CCCN(c2c(NC(=O)c3csc(-c4ccnnc4)n3)ccc(OC3CCCC3)c2C(F)(F)F)C1 [Example 15]
13 nM	NC[C@@H]1CCCN(c2c(NC(=O)c3csc(-c4ccnnc4)n3)ccc(OC3CCC3)c2C(F)(F)F)C1 [Example 14]
3 nM	NC[C@@H]1CCCN(c2c(NC(=O)c3csc(-c4ccnnc4)n3)ccc(Oc3ccccc3F)c2C(F)(F)F)C1 [Example 86]
5 nM	NC[C@@H]1CCCN(c2c(NC(=O)c3csc(-c4ccnnc4)n3)ccc(Oc3c(F)cccc3F)c2C(F)(F)F)C1 [Example 22]
2 nM	NC[C@@H]1CCCN(c2c(NC(=O)c3csc(-c4ccnnc4)n3)ccc(Oc3ccccc3Cl)c2C(F)(F)F)C1 [Example 35]
36 nM	CNC[C@@H]1CCCN(c2c(NC(=O)c3csc(-c4ccnnc4)n3)ccc(Oc3ccc(F)cc3)c2C(F)(F)F)C1 [Example 43]
3 nM	N#Cc1ccccc1Oc1ccc(NC(=O)c2csc(-c3ccnnc3)n2)c(N2CCC[C@@H](CN)C2)c1C(F)(F)F [Example 38]
42 nM	NC[C@@H]1CCCN(c2c(NC(=O)c3csc(-c4ccnnc4)n3)ccc(-c3ccccc3)c2C(F)(F)F)C1 [Example 28]
99 nM	CN(C)C[C@@H]1CCCN(c2c(NC(=O)c3csc(-c4ccnnc4)n3)ccc(Oc3ccccc3)c2C(F)(F)F)C1 [Example 55]
23 nM	CCNC[C@@H]1CCCN(c2c(NC(=O)c3csc(-c4ccnnc4)n3)ccc(Oc3cccc(F)c3)c2C(F)(F)F)C1 [Example 52]
7 nM	NC[C@@H]1CCCN(c2c(NC(=O)c3csc(-c4ccnnc4)n3)ccc(Oc3ccccn3)c2C(F)(F)F)C1 [Example 39]
17 nM	CN(C)C[C@H]1CCCN(c2c(NC(=O)c3csc(-c4ccnnc4)n3)ccc(Oc3ccccc3)c2C(F)(F)F)C1 [Example 54, N-[2-{(3R)-3-[(dimethylamino)methyl]piperidin-1-yl}-4-phenoxy-3-(trifluoromethyl)phenyl]-2-(pyridazin-4-yl)-1,3-thiazole-4-carboxamide dihydrochloride]
6 nM	NC[C@@H]1CCCN(c2c(NC(=O)c3csc(-c4ccnnc4)n3)ccc(Oc3ccccc3)c2C(F)(F)F)C1 [Example 84, N-{2-[(3S)-3-(aminomethyl)piperidin-1-yl]-4-phenoxy-3-(trifluoromethyl)phenyl}-2-(pyridazin-4-yl)-1,3-thiazole-4-carboxamide mono[(2E)-but-2-enedioate]]
32 nM	NC[C@@H]1CCCN(c2c(NC(=O)c3csc(-c4ccnnc4)n3)ccc(S(=O)(=O)c3ccccc3)c2C(F)(F)F)C1 [Example 66]
19 nM	Cn1nccc1Oc1ccc(NC(=O)c2csc(-c3ccnnc3)n2)c(N2CCC[C@@H](CN)C2)c1C(F)(F)F [Example 44]
16 nM	CNC[C@@H]1CCCN(c2c(NC(=O)c3csc(-c4ccnnc4)n3)ccc(Oc3cccc(F)c3)c2C(F)(F)F)C1 [Example 51]
10 nM	NC[C@@H]1CCCN(c2c(NC(=O)c3csc(-c4ccnnc4)n3)ccc(Oc3c(F)cc(F)cc3F)c2C(F)(F)F)C1 [Example 23]
5 nM	CNC[C@@H]1CCCN(c2c(NC(=O)c3csc(-c4ccnnc4)n3)ccc(Oc3ccccc3F)c2C(F)(F)F)C1 [Example 83, N-[4-(2-fluorophenoxy)-2-{(3S)-3-[(methylamino)methyl]piperidin-1-yl}-3-(trifluoromethyl)phenyl]-2-(pyridazin-4-yl)-1,3-thiazole-4-carboxamide mono[(2E)-but-2-enedioate]]
15 nM	NC[C@@H]1CCCN(c2c(NC(=O)c3csc(-c4ccnnc4)n3)ccc(Oc3cccc(F)c3)c2C(F)(F)F)C1 [Example 85]

More lines, now with the values behind:

SMILES	IC50
CN(C)C[C@@H]1CN(c2c(NC(=O)c3csc(-c4ccnnc4)n3)ccc(Oc3ccccc3)c2C(F)(F)F)CCO1 [Example 56]	29 nM
CN(C)[C@@H]1CCN2CCN(c3c(NC(=O)c4csc(-c5ccnnc5)n4)ccc(OC4CC4)c3C(F)(F)F)C[C@@H]12 [Example 82]	3 nM
CN1CCN(c2c(NC(=O)c3csc(-c4ccnnc4)n3)ccc(Oc3ccccc3)c2C(F)(F)F)C[C@@H]1CN [Example 8]	9 nM
CNC1(C(N)=O)CCN(c2ccccc2NC(=O)c2csc(-c3ccnnc3)n2)CC1 [cpd. C, reference compound]	> 2000 nM
CNC[C@H]1CN(c2c(NC(=O)c3csc(-c4ccnnc4)n3)ccc(Oc3ccccc3)c2C)CCN1C [Example 65]	12 nM
NCC[C@@H]1CN(c2c(NC(=O)c3csc(-c4ccnnc4)n3)ccc(Oc3ccccc3)c2C(F)(F)F)CCO1 [Example 30]	39 nM
CNC[C@H]1CCCN1c1c(NC(=O)c2csc(-c3ccnnc3)n2)ccc(Oc2ccccc2)c1C(F)(F)F [Example 37]	26 nM
NCC[C@H]1CCCN1c1c(NC(=O)c2csc(-c3ccnnc3)n2)ccc(Oc2ccccc2)c1C(F)(F)F [Example 45]	24 nM
O=C(Nc1ccc(Oc2ccccc2)c(C(F)(F)F)c1N1CCOC2(CCN(C3COC3)CC2)C1)c1csc(-c2ccnnc2)n1 [Example 62, N-{2-[9-(oxetan-3-yl)-1-oxa-4,9-diazaspiro[5.5]undecan-4-yl]-4-phenoxy-3-(trifluoromethyl)phenyl}-2-(pyridazin-4-yl)-1,3-thiazole-4-carboxamide]	10 nM
O=C(Nc1ccc(Oc2ccccc2)c(C(F)(F)F)c1N1CCCC2(CCNCC2)C1)c1csc(-c2ccnnc2)n1 [Example 42]	23 nM
NC[C@H]1CN(c2c(NC(=O)c3csc(-c4ccnnc4)n3)ccc(Oc3ccccc3)c2C(F)(F)F)CCO1 [Example 27]	90 nM
O=C(Nc1ccc(Oc2ccccc2)c(C(F)(F)F)c1N1CCOC2(CCN(CCO)CC2)C1)c1csc(-c2ccnnc2)n1 [Example 60]	3 nM
O=C(Nc1cc(F)c(OC2CC2)c(F)c1C1=CCN(Cc2cc[nH]n2)CC1)c1csc(-c2ccnnc2)n1 [Example 5]	48 nM
CN(C)C[C@@H]1CCCN(c2c(NC(=O)c3csc(-c4ccnnc4)n3)cc(F)c(Oc3ccccc3)c2F)C1 [Example 57]	240 nM
CN(C)CC[C@@H]1CN(c2c(NC(=O)c3csc(-c4ccnnc4)n3)ccc(Oc3ccccc3)c2C(F)(F)F)CCO1 [Example 58]	144 nM
O=C(Nc1ccc(Oc2ccccc2)c(C(F)(F)F)c1N1CCOC2(CCNCC2)C1)c1csc(-c2ccnnc2)n1 [Example 12]	17 nM
CNC[C@H]1CN(c2c(NC(=O)c3csc(-c4ccnnc4)n3)ccc(Oc3ccccc3)c2C(F)(F)F)CCN1C [Example 6, N-[2-{(3S)-4-methyl-3-[(methylamino)methyl]piperazin-1-yl}-4-phenoxy-3-(trifluoromethyl)phenyl]-2-(pyridazin-4-yl)-1,3-thiazole-4-carboxamide]	3 nM
N[C@H]1CCN2CCN(c3c(NC(=O)c4csc(-c5ccnnc5)n4)ccc(Oc4ccccc4)c3C(F)(F)F)C[C@H]12 [Example 75]	6 nM
CNC[C@H]1CCCN1c1c(NC(=O)c2csc(-c3ccnnc3)n2)ccc(Oc2ccccc2F)c1C(F)(F)F [Example 20]	44 nM
Cc1c(Oc2ccccc2)ccc(NC(=O)c2csc(-c3ccnnc3)n2)c1N1CCC[C@@H](CN)C1 [Example 72]	18 nM
CN1CCC2(CC1)CN(c1c(NC(=O)c3csc(-c4ccnnc4)n3)ccc(Oc3ccccc3)c1C(F)(F)F)CCO2 [Example 1, N-[2-(9-methyl-1-oxa-4,9-diazaspiro[5.5]undecan-4-yl)-4-phenoxy-3-(trifluoromethyl)phenyl]-2-(pyridazin-4-yl)-1,3-thiazole-4-carboxamide]	3 nM
O=C(Nc1ccc(OC2CCC2)c(F)c1C1=CCN(Cc2cc[nH]n2)CC1)c1csc(-c2ccnnc2)n1 [Example 4]	50 nM
N[C@@H]1CCN2CCN(c3c(NC(=O)c4csc(-c5ccnnc5)n4)ccc(OC4CC4)c3C(F)(F)F)C[C@@H]12 [Example 76]	6 nM
O=C(Nc1ccc(OC2CC2)c(C(F)(F)F)c1C1=CCN(Cc2cc[nH]n2)CC1)c1csc(-c2ccnnc2)n1 [Example 3]	20 nM
NC[C@H]1CCCN1c1c(NC(=O)c2csc(-c3ccnnc3)n2)ccc(Oc2ccccc2)c1C(F)(F)F [Example 87]	20 nM
COc1c(Oc2ccccc2)ccc(NC(=O)c2csc(-c3ccnnc3)n2)c1N1CCC[C@@H](CN)C1 [Example 68]	5 nM
